{"source": "patent US10799522B2", "about": "“Compositions and methods relating to galectin detection” (Wayne State University, priority 2015, dated 2020)", "assay": "radiation dosimetry estimates for human patients", "details": "adult male", "key": {"[1]": {"details": "target organ Urinary Bladder Wall"}}}
{"smiles": "OCC1OC(SC2OC(CO)C(O)C(n3cc(-c4cccc([18F])c4)nn3)C2O)C(O)C(n2cc(-c3cccc(F)c3)nn2)C1O", "note": "[[^18F]FPTDG, 3-(3-[^18F]fluorophenyltriazolyl)-3-deoxy-3′-(3-fluorophenyltriazolyl)-3′-deoxy-1-thio-β-D-digalactopyranoside]", "values": [{"measurement": "Estimated organ dose, ED Cont.", "setting": "target organ Ovaries", "value": "1.20 mSv per 370 MBq dose or 10 mCi"}, {"measurement": "Estimated organ dose, EDE Cont.", "setting": "target organ Ovaries", "value": "1.50 mSv per 370 MBq dose or 10 mCi"}, {"measurement": "Estimated organ dose, Photon", "setting": "target organ Ovaries", "value": "4.32 mSv per 370 MBq dose or 10 mCi"}, {"measurement": "Estimated organ dose, Total", "setting": "target organ Ovaries", "value": "6.02 mSv per 370 MBq dose or 10 mCi"}, {"measurement": "Estimated organ dose, Alpha", "setting": "target organ Pancreas", "value": "0 mSv per 370 MBq dose or 10 mCi"}, {"measurement": "Estimated organ dose, Beta", "setting": "target organ Pancreas", "value": "1.70 mSv per 370 MBq dose or 10 mCi"}, {"measurement": "Estimated organ dose, ED Cont.", "setting": "target organ Pancreas", "value": "0.03 mSv per 370 MBq dose or 10 mCi"}, {"measurement": "Estimated organ dose, EDE Cont.", "setting": "target organ Pancreas", "value": "0.35 mSv per 370 MBq dose or 10 mCi"}, {"measurement": "Estimated organ dose, Photon", "setting": "target organ Pancreas", "value": "4.2 mSv per 370 MBq dose or 10 mCi"}, {"measurement": "Estimated organ dose, Total", "setting": "target organ Pancreas", "value": "5.90 mSv per 370 MBq dose or 10 mCi"}, {"measurement": "Estimated organ dose, Alpha", "setting": "target organ Red Marrow", "value": "0 mSv per 370 MBq dose or 10 mCi"}, {"measurement": "Estimated organ dose, Beta", "setting": "target organ Red Marrow", "value": "1.21 mSv per 370 MBq dose or 10 mCi"}, {"measurement": "Estimated organ dose, ED Cont.", "setting": "target organ Red Marrow", "value": "0.51 mSv per 370 MBq dose or 10 mCi"}, {"measurement": "Estimated organ dose, EDE Cont.", "setting": "target organ Red Marrow", "value": "0.51 mSv per 370 MBq dose or 10 mCi"}, {"measurement": "Estimated organ dose, Photon", "setting": "target organ Red Marrow", "value": "3.03 mSv per 370 MBq dose or 10 mCi"}, {"measurement": "Estimated organ dose, Total", "setting": "target organ Red Marrow", "value": "4.24 mSv per 370 MBq dose or 10 mCi"}, {"measurement": "Estimated organ dose, Alpha", "setting": "target organ Skin", "value": "0 mSv per 370 MBq dose or 10 mCi"}, {"measurement": "Estimated organ dose, Beta", "setting": "target organ Skin", "value": "1.70 mSv per 370 MBq dose or 10 mCi"}, {"measurement": "Estimated organ dose, ED Cont.", "setting": "target organ Skin", "value": "0.03 mSv per 370 MBq dose or 10 mCi"}, {"measurement": "Estimated organ dose, EDE Cont.", "setting": "target organ Skin", "value": "0.00 mSv per 370 MBq dose or 10 mCi"}, {"measurement": "Estimated organ dose, Photon", "setting": "target organ Skin", "value": "1.76 mSv per 370 MBq dose or 10 mCi"}, {"measurement": "Estimated organ dose, Total", "setting": "target organ Skin", "value": "3.46 mSv per 370 MBq dose or 10 mCi"}, {"measurement": "Estimated organ dose, Alpha", "setting": "target organ Small Intestine", "value": "0 mSv per 370 MBq dose or 10 mCi"}, {"measurement": "Estimated organ dose, Beta", "setting": "target organ Small Intestine", "value": "4.15 mSv per 370 MBq dose or 10 mCi"}, {"measurement": "Estimated organ dose, ED Cont.", "setting": "target organ Small Intestine", "value": "0.04 mSv per 370 MBq dose or 10 mCi"}, {"measurement": "Estimated organ dose, EDE Cont.", "setting": "target organ Small Intestine", "value": "0.50 mSv per 370 MBq dose or 10 mCi"}, {"measurement": "Estimated organ dose, Photon", "setting": "target organ Small Intestine", "value": "4.21 mSv per 370 MBq dose or 10 mCi"}, {"measurement": "Estimated organ dose, Total", "setting": "target organ Small Intestine", "value": "8.36 mSv per 370 MBq dose or 10 mCi"}, {"measurement": "Estimated organ dose, Alpha", "setting": "target organ Spleen", "value": "0 mSv per 370 MBq dose or 10 mCi"}, {"measurement": "Estimated organ dose, Beta", "setting": "target organ Spleen", "value": "1.70 mSv per 370 MBq dose or 10 mCi"}, {"measurement": "Estimated organ dose, ED Cont.", "setting": "target organ Spleen", "value": "0.03 mSv per 370 MBq dose or 10 mCi"}, {"measurement": "Estimated organ dose, EDE Cont.", "setting": "target organ Spleen", "value": "0.00 mSv per 370 MBq dose or 10 mCi"}, {"measurement": "Estimated organ dose, Photon", "setting": "target organ Spleen", "value": "3.52 mSv per 370 MBq dose or 10 mCi"}, {"measurement": "Estimated organ dose, Total", "setting": "target organ Spleen", "value": "5.22 mSv per 370 MBq dose or 10 mCi"}, {"measurement": "Estimated organ dose, Alpha", "setting": "target organ Stomach Wall", "value": "0 mSv per 370 MBq dose or 10 mCi"}, {"measurement": "Estimated organ dose, Beta", "setting": "target organ Stomach Wall", "value": "9.17 mSv per 370 MBq dose or 10 mCi"}, {"measurement": "Estimated organ dose, ED Cont.", "setting": "target organ Stomach Wall", "value": "1.79 mSv per 370 MBq dose or 10 mCi"}, {"measurement": "Estimated organ dose, EDE Cont.", "setting": "target organ Stomach Wall", "value": "0.90 mSv per 370 MBq dose or 10 mCi"}, {"measurement": "Estimated organ dose, Photon", "setting": "target organ Stomach Wall", "value": "5.78 mSv per 370 MBq dose or 10 mCi"}, {"measurement": "Estimated organ dose, Total", "setting": "target organ Stomach Wall", "value": "14.90 mSv per 370 MBq dose or 10 mCi"}, {"measurement": "Estimated organ dose, Alpha", "setting": "target organ Testes", "value": "0 mSv per 370 MBq dose or 10 mCi"}, {"measurement": "Estimated organ dose, Beta", "setting": "target organ Testes", "value": "1.70 mSv per 370 MBq dose or 10 mCi"}, {"measurement": "Estimated organ dose, ED Cont.", "setting": "target organ Testes", "value": "0.00 mSv per 370 MBq dose or 10 mCi"}, {"measurement": "Estimated organ dose, EDE Cont.", "setting": "target organ Testes", "value": "0.00 mSv per 370 MBq dose or 10 mCi"}, {"measurement": "Estimated organ dose, Photon", "setting": "target organ Testes", "value": "2.67 mSv per 370 MBq dose or 10 mCi"}, {"measurement": "Estimated organ dose, Total", "setting": "target organ Testes", "value": "4.37 mSv per 370 MBq dose or 10 mCi"}, {"measurement": "Estimated organ dose, Alpha", "setting": "target organ Thymus", "value": "0 mSv per 370 MBq dose or 10 mCi"}, {"measurement": "Estimated organ dose, Beta", "setting": "target organ Thymus", "value": "1.70 mSv per 370 MBq dose or 10 mCi"}, {"measurement": "Estimated organ dose, ED Cont.", "setting": "target organ Thymus", "value": "0.02 mSv per 370 MBq dose or 10 mCi"}, {"measurement": "Estimated organ dose, EDE Cont.", "setting": "target organ Thymus", "value": "0.00 mSv per 370 MBq dose or 10 mCi"}, {"measurement": "Estimated organ dose, Photon", "setting": "target organ Thymus", "value": "2.63 mSv per 370 MBq dose or 10 mCi"}, {"measurement": "Estimated organ dose, Total", "setting": "target organ Thymus", "value": "4.33 mSv per 370 MBq dose or 10 mCi"}, {"measurement": "Estimated organ dose, Alpha", "setting": "target organ Thyroid", "value": "0 mSv per 370 MBq dose or 10 mCi"}, {"measurement": "Estimated organ dose, Beta", "setting": "target organ Thyroid", "value": "1.70 mSv per 370 MBq dose or 10 mCi"}, {"measurement": "Estimated organ dose, ED Cont.", "setting": "target organ Thyroid", "value": "0.22 mSv per 370 MBq dose or 10 mCi"}, {"measurement": "Estimated organ dose, EDE Cont.", "setting": "target organ Thyroid", "value": "0.13 mSv per 370 MBq dose or 10 mCi"}, {"measurement": "Estimated organ dose, Photon", "setting": "target organ Thyroid", "value": "2.78 mSv per 370 MBq dose or 10 mCi"}, {"measurement": "Estimated organ dose, Total", "setting": "target organ Thyroid", "value": "4.48 mSv per 370 MBq dose or 10 mCi"}, {"measurement": "Estimated organ dose, Alpha", "setting": "target organ ULI Wall", "value": "0 mSv per 370 MBq dose or 10 mCi"}, {"measurement": "Estimated organ dose, Beta", "setting": "target organ ULI Wall", "value": "1.70 mSv per 370 MBq dose or 10 mCi"}, {"measurement": "Estimated organ dose, ED Cont.", "setting": "target organ ULI Wall", "value": "0.03 mSv per 370 MBq dose or 10 mCi"}, {"measurement": "Estimated organ dose, EDE Cont.", "setting": "target organ ULI Wall", "value": "0.00 mSv per 370 MBq dose or 10 mCi"}, {"measurement": "Estimated organ dose, Photon", "setting": "target organ ULI Wall", "value": "4.02 mSv per 370 MBq dose or 10 mCi"}, {"measurement": "Estimated organ dose, Total", "setting": "target organ ULI Wall", "value": "5.71 mSv per 370 MBq dose or 10 mCi"}, {"measurement": "Estimated organ dose, Alpha", "setting": "[1]", "value": "0 mSv per 370 MBq dose or 10 mCi"}, {"measurement": "Estimated organ dose, Beta", "setting": "[1]", "value": "1.70 mSv per 370 MBq dose or 10 mCi"}, {"measurement": "Estimated organ dose, ED Cont.", "setting": "[1]", "value": "0.27 mSv per 370 MBq dose or 10 mCi"}, {"measurement": "Estimated organ dose, EDE Cont.", "setting": "[1]", "value": "0.00 mSv per 370 MBq dose or 10 mCi"}, {"measurement": "Estimated organ dose, Photon", "setting": "[1]", "value": "3.63 mSv per 370 MBq dose or 10 mCi"}, {"measurement": "Estimated organ dose, Total", "setting": "[1]", "value": "5.33 mSv per 370 MBq dose or 10 mCi"}, {"measurement": "Estimated organ dose, Alpha", "setting": "target organ Uterus", "value": "0 mSv per 370 MBq dose or 10 mCi"}, {"measurement": "Estimated organ dose, Beta", "setting": "target organ Uterus", "value": "1.70 mSv per 370 MBq dose or 10 mCi"}, {"measurement": "Estimated organ dose, ED Cont.", "setting": "target organ Uterus", "value": "0.03 mSv per 370 MBq dose or 10 mCi"}, {"measurement": "Estimated organ dose, EDE Cont.", "setting": "target organ Uterus", "value": "0.35 mSv per 370 MBq dose or 10 mCi"}, {"measurement": "Estimated organ dose, Photon", "setting": "target organ Uterus", "value": "4.06 mSv per 370 MBq dose or 10 mCi"}, {"measurement": "Estimated organ dose, Total", "setting": "target organ Uterus", "value": "5.76 mSv per 370 MBq dose or 10 mCi"}]}
